According to ChEMBL document CHEMBL4837233, “Inhibition of BACE1 and Amyloid-β Aggregation by Meroterpenoids from the Mushroom Albatrellus yasudae” (J Nat Prod, 2021):

Assays:
[1] = molecular target: Amyloid-beta precursor protein (Homo sapiens, UniProt P05067); assay: Inhibition of self-induced aggregation amyloid beta (1 to 40) (unknown origin) incubated for 24 hrs by Thioflavin T based fluorometric assay
Beta-secretase 1 = Beta-secretase 1 (Homo sapiens, UniProt P56817); assay: Inhibition of BACE1 (unknown origin) using Rh-EVNNLDAEFK fluorogenic peptide as substrate incubated for 3 hrs by FRET assay
Sequence of Beta-secretase 1 (P56817 whole entry): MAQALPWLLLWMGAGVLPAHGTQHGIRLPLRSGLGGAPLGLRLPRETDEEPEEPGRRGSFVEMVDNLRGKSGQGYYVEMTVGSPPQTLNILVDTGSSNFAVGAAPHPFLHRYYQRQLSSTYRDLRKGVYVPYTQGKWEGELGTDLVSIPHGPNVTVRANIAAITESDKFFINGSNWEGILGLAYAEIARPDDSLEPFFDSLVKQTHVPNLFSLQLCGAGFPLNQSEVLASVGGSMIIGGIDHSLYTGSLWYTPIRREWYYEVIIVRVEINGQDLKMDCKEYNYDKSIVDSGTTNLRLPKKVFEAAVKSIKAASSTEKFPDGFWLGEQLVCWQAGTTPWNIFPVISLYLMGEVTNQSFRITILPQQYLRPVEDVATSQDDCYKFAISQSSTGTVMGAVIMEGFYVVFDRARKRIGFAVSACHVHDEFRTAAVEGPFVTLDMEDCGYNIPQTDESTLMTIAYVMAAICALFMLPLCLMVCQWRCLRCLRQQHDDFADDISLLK

Sequence of Amyloid-beta precursor protein (P05067 whole entry): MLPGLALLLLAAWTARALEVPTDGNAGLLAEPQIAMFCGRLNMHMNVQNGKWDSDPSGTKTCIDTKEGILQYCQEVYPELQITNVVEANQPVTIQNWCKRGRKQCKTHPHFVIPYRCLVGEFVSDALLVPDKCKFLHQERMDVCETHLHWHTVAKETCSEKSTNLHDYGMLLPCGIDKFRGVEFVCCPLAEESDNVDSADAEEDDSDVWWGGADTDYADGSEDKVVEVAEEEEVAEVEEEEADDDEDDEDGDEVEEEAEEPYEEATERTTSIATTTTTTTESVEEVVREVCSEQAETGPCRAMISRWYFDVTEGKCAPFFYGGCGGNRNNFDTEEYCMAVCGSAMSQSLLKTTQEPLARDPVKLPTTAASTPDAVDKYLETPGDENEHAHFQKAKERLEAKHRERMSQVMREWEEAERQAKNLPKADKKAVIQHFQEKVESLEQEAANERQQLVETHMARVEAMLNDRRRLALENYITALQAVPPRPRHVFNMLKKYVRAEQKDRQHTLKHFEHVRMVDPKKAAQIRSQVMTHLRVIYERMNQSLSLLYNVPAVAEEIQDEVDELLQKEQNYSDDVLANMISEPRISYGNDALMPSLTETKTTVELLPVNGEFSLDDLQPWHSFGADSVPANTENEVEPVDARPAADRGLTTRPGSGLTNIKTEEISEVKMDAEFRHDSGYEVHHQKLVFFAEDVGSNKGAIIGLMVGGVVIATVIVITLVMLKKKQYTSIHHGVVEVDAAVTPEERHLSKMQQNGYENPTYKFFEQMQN

IC50 [1] | IC50 (Beta-secretase 1) | Structure (SMILES)
6.6 µM | 1.6 µM | COc1c(O)c(O)c(C(=O)O)c(C)c1C/C=C(\C)CC/C=C(\C)CCC=C(C)C
51.4 µM | 10.5 µM | C/C(=C\Cc1c(O)cc(C)c(C(=O)O)c1O)CCCC1=C/C(=C\C(C)(C)O)OC1=O
40.7 µM | 10.9 µM | COC(=O)c1c(C)cc(O)c(C/C=C(\C)CCCC2=C/C(=C\C(C)(C)O)OC2=O)c1O
53.3 µM | 34.4 µM | C/C(=C\Cc1c(O)cc(C)c(C(=O)O)c1O)CC/C=C(\C)CC[C@H](O)C(C)(C)O
50.3 µM | > 100 µM | COC(=O)c1c(C)c(C/C=C(\C)CC/C=C(\C)CCC=C(C)C)c(OC)c(O)c1O
 | 1.4 µM | CC(C)=CCC/C(C)=C/CC/C(C)=C/Cc1c(O)cc(C)c(C(=O)O)c1O [GRIFOLIC ACID]
 | 6.1 µM | CC(C)=CCC/C(C)=C/CC/C(C)=C/Cc1c(O)cc(C)cc1O [GRIFOLIN]
